According to the METLIN SMRT retention time set (Domingo-Almenara et al. 2019):

Assay: gradient 5% acetonitrile 3 min, to 50% in 2 min, to 85% in 15 min, held 3 min, 100 µL/min
Details: column: Zorbax Extend-C18 2.1 x 50 mm; eluents: water / acetonitrile, 0.1% formic acid
How it was run: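 Data were gathered over 3 months by HPLC coupled to a quadrupole time-of-flight mass spectrometer, operated in positive and negative ionization mode. Mixtures of ~100 pure standards ran on a Zorbax Extend-C18 column (2.1 × 50 mm, 1.8 μm) at 100 μL/min, with water and acetonitrile each containing 0.1% formic acid and dead and dwell volumes of 40 μL and 900 μL. Retention time was read from adduct peaks picked by computer and checked manually.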

Row | SMILES | RP-LC retention time [s]
1 | Cc1ccc(NC(=O)N2CCN(c3ccc(=O)n(-c4ccccc4)n3)CC2)cc1Cl | 708
2 | CCN1CCCn2cc(S(=O)(=O)N3CCN(c4ccccn4)CC3)cc2C1=O | 577
3 | CCN(CC)c1ccc(NC(=O)CN2C(=O)C(C)(C)c3ccccc32)c(C)c1 | 630
4 | CCOc1ccc(/C=C/C(=O)Nc2nc(-c3ccc4c(c3)N(CC)C(=O)CO4)cs2)cc1OC | 1020
5 | CCn1cc(-c2nc(CC(=O)Nc3cc(C)ccc3F)cs2)c2cccnc21 | 1040
6 | Cc1ccc(NS(=O)(=O)c2cn(C)c3ncccc23)cc1 | 774
7 | Cc1ccc2nc(C)c(NC(=O)CSCc3ccccc3)c(=O)n2c1 | 662
8 | CS(=O)(=O)Nc1ccc(C2(C(=O)NCc3cc(F)cc(F)c3)CCCCC2)cc1 | 916
9 | CC(C)CCNC(=O)C1CCCCC(=O)N1 (stereo not drawn) | 670
10 | Cc1ccc2c(c1)N(S(C)(=O)=O)CCC(C(=O)Nc1ccccc1F)O2 (stereo not drawn) | 918
11 | COc1ccc(-c2cn3c(CC(=O)NCc4ccc(N(C)C)cc4)csc3n2)cc1OC | 588
12 | CCOc1ccccc1-n1ccn(Cc2nc(-c3ccc(Cl)cc3)no2)c(=O)c1=O | 938
13 | CCN1C(=O)c2cccnc2Sc2cc(NC(=O)Cc3ccc(F)cc3)ccc21 | 816
14 | C[C@]12CCC3[C@@H](CC[C@@H]4C[C@H](O)CC[C@]34C)[C@@H]1CCC2=O (stereo partly drawn) | 992
15 | CC1CCN(S(=O)(=O)c2ccc3c(c2)CCCC(=O)N3CC(=O)Nc2ccc(F)cc2)CC1 | 959
16 | CCOc1ccccc1NC(=O)C1CCN(S(=O)(=O)c2ccc3[nH]c(=O)sc3c2)CC1 | 870
17 | Cc1ccc(Cl)cc1N1CCN(C(=O)CN2C(=O)CN(C)C(=O)c3ccccc32)CC1 | 867
18 | CC(C)Oc1cc(O)c2c(=O)cc(-c3ccccc3)oc2c1 | 1260
19 | COCCOCc1nc(C2CCN(S(=O)(=O)c3cccc4nsnc34)C2)no1 (stereo not drawn) | 769
20 | CCCNC(=O)CCc1c(C)n(C)c2nc(-c3ccccc3)nn2c1=O | 665
21 | Cc1ccc(N2CC(c3nc(-c4ccc(N(C)C)cc4)no3)CC2=O)cc1Cl (stereo not drawn) | 1160
22 | N#Cc1cccc(C(=O)Nc2cnn(-c3ncc(N4CCCCC4)cn3)c2)c1 | 847

Row | SMILES | RP-LC retention time [s]
23 | Cc1cccc(N(C)C(=O)Cn2c(N3CCc4ccccc4C3)nc(C)cc2=O)c1 | 850
24 | CCCn1cc(C(=O)NC(C)CC)c2nn(-c3ccccc3)c(=O)c-2c1 (stereo not drawn) | 880
25 | O=C(CSc1nc(-c2ccccc2)c(NC(=O)c2cccs2)s1)NC1CC1 | 782
26 | COC(=O)c1ccc(NC(=O)C(=O)NCc2ccccn2)cc1 | 592
27 | Cc1ccc(CNC(=O)C2CCN(S(=O)(=O)c3ccc4c(c3)NC(=O)CO4)CC2)cc1 | 794
28 | COc1ccc(-c2cc3nn(CC(=O)N4CCCC(C)C4)c(=O)n3c(C)n2)cc1 (stereo not drawn) | 902
29 | CCOc1ccc(-c2cc(SCc3cccnc3)ncn2)cc1 | 690
30 | Cc1cc2c(=O)n(CC(=O)NCc3ccc(F)cc3Cl)ccc2s1 | 814
31 | COc1ccc(CCNC(=O)C2CCCN(c3ccc(-c4ccco4)nn3)C2)cc1OC (stereo not drawn) | 618
32 | CCc1nc(-c2csc(S(=O)(=O)N3CCCC(C(=O)Nc4ccc(Cl)cn4)C3)c2)no1 (stereo not drawn) | 1080
33 | COc1ccc(CNC(=O)Cn2cnc3c(sc4nc(-c5ccccc5)ccc43)c2=O)cc1 | 950
34 | COc1ccc(-n2c(=O)c3sccc3n(Cc3nc(-c4ccc(OC(C)C)cc4)no3)c2=O)cc1 | 1060
35 | c1cc(-c2nc(-c3ccc(OC4CNC4)cc3)no2)ccn1 | 604
36 | O=C(c1ccc(F)c(F)c1)N1CCc2nc(-c3ccc(Cl)cc3)ncc2C1 | 1020
37 | Cc1cccc(-c2nc(-c3ccc4c(c3)ncn4CCN3CCCC3)no2)c1 | 676
38 | COCCNC(=O)c1nnc(-c2ccc(S(=O)(=O)N(C)C)cc2)o1 | 687
39 | COCCCNC(=O)C1(C)Cn2nc(-c3ccccc3)cc2C(=O)N1c1ccc(F)cc1 (stereo not drawn) | 806
40 | COc1ccc(OCc2noc(CNC(=O)Nc3ccc(Cl)c(Cl)c3)n2)cc1 | 917
41 | CCOc1ccccc1NC(=O)Cn1ncc2c(N3CCN(c4ccccn4)CC3)ncnc21 | 628
42 | COc1ccc(S(=O)(=O)CCC(=O)Nc2ccc(Cl)c3ncsc23)cc1 | 707
43 | Cc1ccc(NC(=O)c2cnc3c(c2)c(=O)n(C)c(=O)n3-c2ccccc2)cc1 | 919
44 | Cc1nn(-c2ccccc2)c2c1N(CC(=O)N1CCN(c3ccccc3)CC1)C(=O)CS2 | 839

Row | SMILES | RP-LC retention time [s]
45 | O=C(NCc1ccccc1)C1CCN(S(=O)(=O)c2cc(-c3noc(C4CCC4)n3)cs2)CC1 | 1020
46 | CC1(C(=O)NCc2ccc(F)cc2)CCN(C(=O)Nc2ccccc2Br)CC1 | 871
47 | Cc1oc(-c2[nH]ncc2C(=O)N2CCCC2)cc1S(=O)(=O)NCc1ccco1 | 651
48 | O=C(COc1ccc(Cl)cc1)Nc1nc(-c2ccc(Cl)cc2)cs1 | 1190
49 | CCOc1ccc(NC(=O)Nc2cc(C(C)C)ccc2C)cc1 | 1160
50 | COC(=O)c1ccc(NC(=O)C2CCCN(c3nc4ccccc4nc3OC)C2)cc1 (stereo not drawn) | 1120
51 | O=C(NCCc1ccc(Cl)cc1)c1nnc(-c2ccc(S(=O)(=O)N3CCOCC3)cc2)o1 | 925
52 | O=C(C1CCCN(c2ncnc3c2nc2n3CCCCC2)C1)N1CCN(c2ccc(F)cc2)CC1 (stereo not drawn) | 829
53 | COc1ccccc1-c1noc(Cn2c(=O)n(Cc3ccc(C)cc3)c(=O)c3sccc32)n1 | 1100
54 | O=C(CCc1nnc(C(=O)Nc2ccccc2)s1)NCCc1c[nH]c2ccccc12 | 843
55 | CCC(=O)N(C1CCOCC1)C1CCN(Cc2cccc(Br)c2)CC1 | 635
56 | CCn1cnc(S(=O)(=O)N2CCCC(C(=O)Nc3ccc(F)cc3)C2)c1 (stereo not drawn) | 726
57 | CCCn1cc(CCNC(=O)c2cc(F)cc(F)c2)c2cccnc21 | 820
58 | COc1ccc(CCC(=O)NCCCOc2cccc3cccnc23)cc1 | 593
59 | Cc1ccc(Nc2c(-c3ccc(N4CCOCC4)cc3)nc3ccc(Cl)cn23)cc1 | 777
60 | CCC(CO)Nc1nc(NCc2ccccc2)c2ncn(C(C)C)c2n1 (stereo not drawn) | 630
61 | CNC(=O)[C@@H]1CN(C(=O)c2cscn2)C[C@H]1c1nc(C)no1 | 585
62 | Cc1cc(C)c(CNC(=O)c2ccc(NC(=O)C3CC3)cc2N2CCOCC2)c(C)c1 | 901
63 | CCc1nn2c(CNS(=O)(=O)Cc3cc(F)cc(F)c3)c(-c3ccccc3)nc2s1 | 1010
64 | CCNC(=O)C1CCN(S(=O)(=O)c2cc(C(=O)N(C)C)cs2)CC1 | 624
65 | CN(CCc1noc(COc2ccccc2)n1)C(=O)Nc1ccc(F)c(Cl)c1 | 966
66 | O=C(Cn1nc(N2CCCCCC2)c2ccccc2c1=O)Nc1ccccc1F | 1120

Row | SMILES | RP-LC retention time [s]
67 | Cc1ccc2c(Nc3ccc4c(c3)OCCO4)c(C(=O)N3CCC(C)CC3)cnc2n1 | 649
68 | COc1ccc(-c2noc(C3CC(=O)N(c4ccc(C(C)C)cc4)C3)n2)cc1OC (stereo not drawn) | 870
69 | CC1(C)CC(=O)c2cn(-c3ccccc3)c(=O)c(C(=O)NC3CC3)c2C1 | 963
70 | CCn1c(=O)c(N2CCCC(C(=O)N3CCN(c4ccc(OC)cc4)CC3)C2)nc2ccccc21 (stereo not drawn) | 987
71 | Cc1nnc2n1CCC(NC(=O)c1ccoc1)CC2 (stereo not drawn) | 532
72 | Cc1ccc(C(=O)CC2(O)C(=O)Nc3ccccc32)cc1C (stereo not drawn) | 751
73 | CCCN1CCN(C(=O)c2noc3c2CCCCC3)CC1 | 613
74 | O=C(c1nnc(-c2ccc(S(=O)(=O)N3CCCC3)cc2)o1)N1CCCCCC1 | 902
75 | CCc1ccc(CNC(=O)Cc2nnc(-c3cnccn3)o2)cc1 | 739
76 | COc1ccccc1-c1nc(Cn2nnc(-c3nc(-c4cccc(OC)c4OC)no3)c2C)c(C)o1 | 1050
77 | COc1ccc(Cl)cc1C(=O)N1CCN(C2=NC=CN3CC(C)N=C23)CC1 (stereo not drawn) | 578
78 | CC1=NS(=O)(=O)N(C)C=C1C(=O)OCCC(C)C | 966
79 | CCc1ccc(NC(=O)CN2C(=O)NC3(CCCCC3)C2=O)cc1 | 765
80 | CCOC(=O)c1ccc(OC(=O)c2cn(C)c(=O)c3ccccc23)cc1 | 953
81 | Cc1cc(-c2nnc(-c3ccc(F)cc3)o2)c(C)n1CC(=O)Nc1ccccc1 | 977
82 | Cc1ccc2oc(=O)n(Cc3noc(C(=O)NCc4ccc(Br)cc4)n3)c2c1 | 952
83 | CCOC(=O)c1nc(N2CCN(c3ccc(C)cc3C)CC2)c2ccccc2n1 | 1110
84 | CCCN1CCN(c2cc(C(=O)O)c3cc(NS(=O)(=O)c4ccccc4Cl)ccc3n2)CC1 | 595
85 | COc1ccc(C2C(C(=O)NCc3ccccn3)c3cc(OC)c(OC)cc3C(=O)N2C)cc1OC (stereo not drawn) | 595
86 | CCc1ccc(N2CC(c3noc(-c4ccc(F)cc4)n3)CC2=O)cc1 (stereo not drawn) | 1100
87 | Cc1ccc(S(=O)(=O)Cc2noc(-c3ccc(Br)cc3)n2)cc1 | 1030
88 | O=C(Nc1cc(-c2cccs2)no1)C1CC1 | 803
